Experimental data from ChEMBL document CHEMBL1201862, “PubChem BioAssay data set” (2004).
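How tested: cells in 96-well plates exposed to compound for 48 hours at five concentrations. GI50: concentration for 50% inhibition of growth.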 Activity calls are given as the source filed them. Cut-off read from the data, not from the text of the source: active = GI50 up to about 1.1 µM and inactive = higher.

Tests used:
Assay in all cases: NCI anticancer screen, dose series, 48 h
ACHN = tested on: ACHN
LXFL 529 = tested on: LXFL 529
RXF 631 = tested on: RXF 631
SR = tested on: SR
DU-145 = tested on: DU-145
MDA-N = tested on: MDA-N
PC-3 = tested on: PC-3
786-0 = tested on: 786-0
XF498 = tested on: XF498

Measured: GI50

CCCCCCCCCCCCSC(=S)c1c(C)[nH]n(CCCCCCCCCCCC)c1=O
inactive: ACHN 55.2 µM | LXFL 529 67.9 µM | RXF 631 > 100 µM | SR > 100 µM

O=c1ccc2ccc(CBr)cc2o1
inactive: DU-145 17.1 µM | MDA-N 3.85 µM | PC-3 > 100 µM | SR 2.2 µM

CCOC(=O)/C(Cl)=C(\C)Nc1nc2c(ccc3ccccc32)s1
inactive: ACHN > 100 µM | DU-145 20.6 µM | MDA-N 26.3 µM | PC-3 22.5 µM | SR 19.5 µM

C[C@H](N[C@H]1CCC[C@]1(O)C#Cc1ccc2c(c1)OCO2)c1ccccc1
inactive: ACHN > 25 µM | DU-145 > 25 µM | PC-3 13.6 µM | SR 20.7 µM

Clc1nc(-[n+]2ccc(-c3ccncc3)cc2)nc(Nc2ccccc2)c1Cl
inactive: 786-0 83.8 µM | ACHN > 100 µM | DU-145 > 100 µM | MDA-N > 100 µM | PC-3 > 100 µM | SR 26.2 µM

O=C1CCCN1CCC/N=c1/cc2n(-c3ccc(Cl)cc3)c3ccccc3nc-2cc1Nc1ccc(Cl)cc1
inactive: XF498 19.7 µM

CC(C)(C)c1ccc2c(c1)OP1(Oc3c(Cl)cc(Cl)c4cccnc34)(O2)Oc2ccc(C(C)(C)C)cc2O1
inactive: XF498 13.5 µM

COc1cc(C2S/C(=C/c3ccccc3)C(=O)N2c2ccccc2Cl)cc(OC)c1OC (stereo not drawn)
inactive: ACHN 44.4 µM | MDA-N 15.7 µM | PC-3 21.8 µM
